# Data reported in patent publication US20240228506A1, “RIPK1 INHIBITORS AND METHODS OF USE” (Merck Sharp & Dohme LLC, priority 2021, published 2024).
# Target: T1, GST-RIPK1 (recombinant GST-RIPK1 kinase domain (residues 1-327)) (Homo sapiens, UniProt Q13546)
# T1 construct: recombinant GST-RIPK1 kinase domain (residues 1-327) enzyme; made in house; host or cells: baculovirus-transfected Sf21 insect cells
# T1 sequence (Q13546 1-327): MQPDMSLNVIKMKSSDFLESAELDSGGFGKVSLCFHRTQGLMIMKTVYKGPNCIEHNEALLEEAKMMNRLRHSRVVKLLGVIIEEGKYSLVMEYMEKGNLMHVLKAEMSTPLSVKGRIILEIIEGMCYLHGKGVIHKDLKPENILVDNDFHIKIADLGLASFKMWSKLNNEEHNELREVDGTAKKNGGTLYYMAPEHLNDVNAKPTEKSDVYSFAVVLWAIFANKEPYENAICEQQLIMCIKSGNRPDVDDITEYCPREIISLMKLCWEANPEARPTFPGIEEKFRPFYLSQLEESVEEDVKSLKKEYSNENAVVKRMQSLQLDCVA
# Assay: RIPK1-ADP-Glo enzymatic assay
# Type: biochemical
# Conditions: 25 nM GST-RIPK1, 300 μM ATP, 3 μM dephosphorylated-MBP; 30 minutes pre-incubation, 150 minutes reaction; ten-point titration
# Procedure, shortened: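 Ten-point 1:3 titrations from 100000 nM, 1% DMSO, were preincubated 30 min with 25 nM GST-RIPK1 (1-327) before starting with 300 μM ATP plus 3 μM dephosphorylated MBP; 150 min reaction. ADP-Glo luminescence measured ATP-to-ADP conversion; EC50 by four-parameter sigmoidal regression.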
row,Structure (SMILES),IC50 [nM]
1,"N#Cc1cncc2c1O[C@H]1C[C@@H]2N(C(=O)C2(C(F)F)CCCC2)C1 [Compound 1-14, (2S,5S)-4-[1-(difluoromethyl)cyclopentane-1-carbonyl]-2,3,4,5-tetrahydro-2,5-methanopyrido[3,4-f][1,4]oxazepine-9-carbonitrile]",51
2,"CC(C)(CC(F)F)C(=O)N1C[C@@H]2C[C@H]1c1cncc(C#N)c1O2 [Compound 1-15, (2S,5S)-4-(4,4-difluoro-2,2-dimethylbutanoyl)-2,3,4,5-tetrahydro-2,5-methanopyrido[3,4-f][1,4]oxazepine-9-carbonitrile]",99
3,"Cc1ncc2c(c1C#N)O[C@H]1C[C@@H]2N(C(=O)C(C)(C)C(F)F)C1 [Compound 1-18, (2S,5S)-4-(3,3-difluoro-2,2-dimethylpropanoyl)-8-methyl-2,3,4,5-tetrahydro-2,5-methanopyrido[3,4-f][1,4]oxazepine-9-carbonitrile]",84
4,"N#Cc1cncc2c1O[C@H]1C[C@@H]2N(C(=O)C23CCC(C(F)F)(CC2)C3)C1 [Compound 1-19, (2S,5S)-4-[4-(difluoromethyl)bicyclo[2.2.1]heptane-1-carbonyl]-2,3,4,5-tetrahydro-2,5-metanopyrido[3,4-f][1,4]oxazepine-9-carbonitrile]",24
5,"CC(C)(CC#N)C(=O)N1C[C@@H]2C[C@H]1c1cncc(C#N)c1O2 [Compound 1-20, (2S,5S)-4-(3-cyano-2,2-dimethylpropanoyl)-2,3,4,5-tetrahydro-2,5-methanopyrido[3,4-f][1,4]oxazepine-9-carbonitrile]",89
6,"CCC(C#N)(CC)C(=O)N1C[C@@H]2C[C@H]1c1cncc(C#N)c1O2 [Compound 1-21, (2S,5S)-4-(2-cyano-2-ethylbutanoyl)-2,3,4,5-tetrahydro-2,5-methanopyrido[3,4-f][1,4]oxazepine-9-carbonitrile]",366
7,"CC(F)(F)C1(C(=O)N2C[C@@H]3C[C@H]2c2cncc(C#N)c2O3)CCC1 [Compound 1-22, (2S,5S)-4-[1-(1,1-difluoroethyl)cyclobutane-1-carbonyl]-2,3,4,5-tetrahydro-2,5-methanopyrido[3,4-f][1,4]oxazepine-9-carbonitrile]",55
8,"N#Cc1cncc2c1O[C@H]1C[C@@H]2N(C(=O)C2(C(F)F)CCC2)C1 [Compound 1-23, (2S,5S)-4-[1-(difluoromethyl)cyclobutane-1-carbonyl]-2,3,4,5-tetrahydro-2,5-methanopyrido[3,4-f][1,4]oxazepine-9-carbonitrile]",88
9,"COC(C)(C)C(=O)N1C[C@@H]2C[C@H]1c1cncc(C#N)c1O2 [Compound 1-24, (2S,5S)-4-(2-methoxy-2-methylpropanoyl)-2,3,4,5-tetrahydro-2,5-methanopyrido[3,4-f][1,4]oxazepine-9-carbonitrile]",288
10,"CC(C)(C(=O)N1C[C@@H]2C[C@H]1c1cncc(C#N)c1O2)C1CCC1 [Compound 1-25, (2S,5S)-4-(2-cyclobutyl-2-methylpropanoyl)-2,3,4,5-tetrahydro-2,5-methanopyrido[3,4-f][1,4]oxazepine-9-carbonitrile]",119
11,"N#Cc1cncc2c1O[C@H]1C[C@@H]2N(C(=O)C23CCC(CC2)OC3)C1 [Compound 1-26, (2S,5S)-4-(2-oxabicyclo[2.2.2]octane-4-carbonyl)-2,3,4,5-tetrahydro-2,5-methanopyrido[3,4-f][1,4]oxazepine-9-carbonitrile]",313
12,"CC(F)(F)C1(C(=O)N2C[C@@H]3C[C@H]2c2cncc(C#N)c2O3)CC1 [Compound 1-27, (2S,5S)-4-[1-(1,1-difluoroethyl)cyclopropane-1-carbonyl]-2,3,4,5-tetrahydro-2,5-methanopyrido[3,4-f][1,4]oxazepine-9-carbonitrile]",221
13,"CC1(C(=O)N2C[C@@H]3C[C@H]2c2cncc(C#N)c2O3)CCC(F)(F)C1 (stereo partly drawn) [Compound 1-30, (2S,5S)-4-(3,3-difluoro-1-methylcyclopentane-1-carbonyl)-2,3,4,5-tetrahydro-2,5-methanopyrido[3,4-f][1,4]oxazepine-9-carbonitrile]",66
14,"N#Cc1cncc2c1O[C@H]1C[C@@H]2N(C(=O)C23CCC(C2)C3)C1 [Compound 1-31, (2S,5S)-4-(bicyclo[2.1.1]hexane-1-carbonyl)-2,3,4,5-tetrahydro-2,5-methanopyrido[3,4-f][1,4]oxazepine-9-carbonitrile]",54
15,"CC(C)C(C)(C)C(=O)N1C[C@@H]2C[C@H]1c1cncc(C#N)c1O2 [Compound 1-34, (2S,5S)-4-(2,2,3-trimethylbutanoyl)-2,3,4,5-tetrahydro-2,5-methanopyrido[3,4-f][1,4]oxazepine-9-carbonitrile]",24
16,"CC(C)(CC(F)(F)F)C(=O)N1C[C@@H]2C[C@H]1c1cncc(C#N)c1O2 [Compound 1-35, (2S,5S)-4-(4,4,4-trifluoro-2,2-dimethylbutanoyl)-2,3,4,5-tetrahydro-2,5-methanopyrido[3,4-f][1,4]oxazepine-9-carbonitrile]",483
17,"CC1(C(=O)N2C[C@@H]3C[C@H]2c2cncc(C#N)c2O3)CCC(F)(F)CC1 [Compound 1-36, (2S,5S)-4-(4,4-difluoro-1-methylcyclohexane-1-carbonyl)-2,3,4,5-tetrahydro-2,5-methanopyrido[3,4-f][1,4]oxazepine-9-carbonitrile]",973
18,"CC(C)(CF)C(=O)N1C[C@@H]2C[C@H]1c1cncc(C#N)c1O2 [Compound 1-42, (2S,5S)-4-(3-fluoro-2,2-dimethylpropanoyl)-2,3,4,5-tetrahydro-2,5-methanopyrido[3,4-f][1,4]oxazepine-9-carbonitrile]",114
19,"CCC(F)(F)C(C)(C)C(=O)N1C[C@@H]2C[C@H]1c1cncc(C#N)c1O2 [Compound 1-43, (2S,5S)-4-(3,3-difluoro-2,2-dimethylpentanoyl)-2,3,4,5-tetrahydro-2,5-methanopyrido[3,4-f][1,4]oxazepine-9-carbonitrile]",491
20,"N#Cc1cncc2c1O[C@H]1C[C@@H]2N(C(=O)C2(CC(F)F)CCC2)C1 [Compound 1-44, (2S,5S)-4-[1-(2,2-difluoroethyl)cyclobutane-1-carbonyl]-2,3,4,5-tetrahydro-2,5-methanopyrido[3,4-f][1,4]oxazepine-9-carbonitrile]",254
21,"N#Cc1cncc2c1O[C@H]1C[C@@H]2N(C(=O)C2CC3(CCCC3)C2)C1 [Compound 1-45, (2S,5S)-4-(spiro[3.4]octane-2-carbonyl)-2,3,4,5-tetrahydro-2,5-methanopyrido[3,4-f][1,4]oxazepine-9-carbonitrile]",330
22,"CC1(C(=O)N2C[C@@H]3C[C@H]2c2cncc(C#N)c2O3)CC1C(F)(F)F (stereo partly drawn) [Compound 1-46, (2S,5S)-4-[1-methyl-2-(trifluoromethyl)cyclopropane-1-carbonyl]-2,3,4,5-tetrahydro-2,5-methanopyrido[3,4-f][1,4]oxazepine-9-carbonitrile]",78
23,"N#Cc1cncc2c1O[C@H]1C[C@@H]2N(C(=O)C23CSC(C2)C3)C1 [Compound 1-47, (2S,5S)-4-(2-thiabicyclo[2.1.1]hexane-4-carbonyl)-2,3,4,5-tetrahydro-2,5-methanopyrido[3,4-f][1,4]oxazepine-9-carbonitrile]",22
24,"N#Cc1cc(N2CCC(F)(C(=O)N3C[C@@H]4C[C@H]3c3cncc(C#N)c3O4)CC2)ncn1 [Compound 1-52, (2S,5S)-4-(1-(6-cyanopyrimidin-4-yl)-4-fluoropiperidine-4-carbonyl)-2,3,4,5-tetrahydro-2,5-methanopyrido[3,4-f][1,4]oxazepine-9-carbonitrile]",116
25,"COc1cc(N2CCC(F)(C(=O)N3C[C@@H]4C[C@H]3c3cncc(C#N)c3O4)CC2)ncn1 [Compound 1-53, (2S,5S)-4-(4-fluoro-1-(6-methoxypyrimidin-4-yl)piperidine-4-carbonyl)-2,3,4,5-tetrahydro-2,5-methanopyrido[3,4-f][1,4]oxazepine-9-carbonitrile]",226
26,"N#Cc1cncc2c1O[C@H]1C[C@@H]2N(C(=O)C2(F)CCN(C(=O)c3ccccc3)CC2)C1 [Compound 1-54, (2S,5S)-4-(1-benzoyl-4-fluoropiperidine-4-carbonyl)-2,3,4,5-tetrahydro-2,5-methanopyrido[3,4-f][1,4]oxazepine-9-carbonitrile]",116
27,"N#Cc1cncc2c1O[C@H]1C[C@@H]2N(C(=O)C2(F)CCN(c3ccnc4c(F)cnn34)CC2)C1 [Compound 1-55, (2S,5S)-4-(4-fluoro-1-(3-fluoropyrazolo[1,5-a]pyrimidin-7-yl)piperidine-4-carbonyl)-2,3,4,5-tetrahydro-2,5-methanopyrido[3,4-f][1,4]oxazepine-9-carbonitrile]",18
28,"COc1ccnc(N2CCC(F)(C(=O)N3C[C@@H]4C[C@H]3c3cncc(C#N)c3O4)CC2)n1 [Compound 1-56, (2S,5S)-4-(4-fluoro-1-(4-methoxypyrimidin-2-yl)piperidine-4-carbonyl)-2,3,4,5-tetrahydro-2,5-methanopyrido[3,4-f][1,4]oxazepine-9-carbonitrile]",41
29,"N#Cc1cncc2c1O[C@H]1C[C@@H]2N(C(=O)C2(F)CCN(c3ncnc4scnc34)CC2)C1 [Compound 1-57, (2S,5S)-4-(4-fluoro-1-(thiazolo[5,4-d]pyrimidin-7-yl)piperidine-4-carbonyl)-2,3,4,5-tetrahydro-2,5-methanopyrido[3,4-f][1,4]oxazepine-9-carbonitrile]",35
